Data on 5 compounds can be found in ChEMBL document CHEMBL5375957, “Optimization of Novel α7 Nicotinic Acetylcholine Receptor Positive Allosteric Modulators and the Discovery of a Preclinical Development Candidate Molecule (RGH-560)” (J Med Chem, 2023).

Molecules are shown by their SMILES. ≈ marks a conversion by molar mass, not a printed value. Calls of active or inactive are those of the source. The rule behind the calls is not given here.

A short description of data set [1]: Kinetic solubility of compound at pH 7.4 incubated for 2 hrs by UV-HPLC analysis. It is filed as physicochemical. Conditions: buffer, read-out: Kinetic_solubility.
Data set [2] can be described thus: Metabolic stability in human liver microsome assessed as intrinsic clearance measured per mg of protein incubated for 40 mins. It counts as ADME. The conditions noted are these: liver microsomes, read-out: CLH.
Data set [3] is described as follows: Metabolic stability in Wistar rat liver microsome assessed as intrinsic clearance measured per mg of protein incubated for 40 mins. It is filed as ADME. The conditions noted are these: liver microsomes, read-out: CLH. For orientation: Liver microsomes are vesicles of endoplasmic reticulum, rich in cytochrome P450 enzymes.
A short description of data set [4]: Metabolic stability in NMRI mouse liver microsome assessed as intrinsic clearance measured per mg of protein incubated for 40 mins. It counts as ADME. Conditions: liver microsomes, read-out: CLH.
Data set [5] relates to Mus musculus. The data set is described as follows: Cognitive activity in scopolamine induced amnesia NMRI mouse model assessed as recognition index at 1 to 10 mg/kg, ip pretreated with compound for 30 mins followed by scopolamine induction by Y maze test. It counts as functional, organism-based. Conditions: dose 1-10 mg/kg.
Data set [6] addresses Neuronal acetylcholine receptor subunit alpha-7 (Homo sapiens, UniProt P36544). Description: Positive allosteric modulator activity at human alpha7 nAChR expressed in Flp-In HEK293 cells assessed as increase in calcium influx incubated for 10 mins by fluorescence based analysis. It is filed as cell-based.
A short description of data set [7]: Drug concentration in NMRI mouse brain at 1 mg/kg, ip measured after 1 hr by HPLC-MS/MS analysis. It is filed as ADME, organism-based. The conditions noted are these: read-out: Ct.
A short description of data set [8]: Drug concentration in NMRI mouse brain at 3 mg/kg, ip measured after 1 hr by HPLC-MS/MS analysis. It counts as ADME, organism-based. Conditions: read-out: Ct.
The nature of data set [9]: Drug concentration in NMRI mouse brain at 10 mg/kg, ip measured after 1 hr by HPLC-MS/MS analysis. It is filed as ADME, organism-based. Conditions: read-out: Ct.
Data set [10] can be described thus: Drug concentration in NMRI mouse plasma at 1 mg/kg, ip measured after 1 hr by HPLC-MS/MS analysis. It is filed as ADME, organism-based.
A short description of data set [11]: Drug concentration in NMRI mouse plasma at 3 mg/kg, ip measured after 1 hr by HPLC-MS/MS analysis. It counts as ADME, organism-based.
Data set [12] can be described thus: Drug concentration in NMRI mouse plasma at 10 mg/kg, ip measured after 1 hr by HPLC-MS/MS analysis. It counts as ADME, organism-based.
Data set [13] is described as follows: Ratio of drug concentration in brain to plasma in NMRI mouse plasma at 1 mg/kg, ip measured after 1 hr by HPLC-MS/MS analysis. It is filed as ADME, organism-based.
Data set [14] is described as follows: Ratio of drug concentration in brain to plasma in NMRI mouse plasma at 3 mg/kg, ip measured after 1 hr by HPLC-MS/MS analysis. It counts as ADME, organism-based.
Data set [15] is described as follows: Ratio of drug concentration in brain to plasma in NMRI mouse plasma at 10 mg/kg, ip measured after 1 hr by HPLC-MS/MS analysis. It counts as ADME, organism-based.
In data set [16] the test system is Mus musculus. The data set is described as follows: Cognitive activity in scopolamine induced amnesia ip dosed NMRI mouse model assessed as minimum effective dose pretreated with compound for 30 mins followed by scopolamine induction. It is filed as functional. The conditions noted are these: 0.5 h.
Data set [17] can be described thus: Metabolic stability in human Hepatocyte assessed as intrinsic clearance measured per million cells incubated for 40 mins. It counts as ADME, cell-based. The conditions noted are these: hepatocytes, read-out: CLH.
Data set [18] can be described thus: Toxicity in NMRI mouse assessed as effect on locomotor activity at 30 mg/kg, ip. It is filed as organism-based. The conditions noted are these: in vivo.
A short description of data set [19]: Efflux ratio of apparent permeability in human Caco-2 cells at 10 uM. It counts as ADME, cell-based. In general terms: Caco-2 cells form a polarised layer with tight junctions and transporters.
Data set [20] can be described thus: Apparent permeability in human Caco2 cells at 10 uM. It is filed as ADME, cell-based. Conditions: Caco-2.
Data set [21] has as its target Voltage-gated inwardly rectifying potassium channel KCNH2 (Homo sapiens, UniProt Q12809). Description: Inhibition of hERG transfected in CHO cells at -80 mV holding potential by automated patch clamp assay. It is filed as toxicity, cell-based. In general terms: hERG is a cardiac potassium channel; its block is linked to QT prolongation.

Sequence of Neuronal acetylcholine receptor subunit alpha-7 (P36544 whole entry): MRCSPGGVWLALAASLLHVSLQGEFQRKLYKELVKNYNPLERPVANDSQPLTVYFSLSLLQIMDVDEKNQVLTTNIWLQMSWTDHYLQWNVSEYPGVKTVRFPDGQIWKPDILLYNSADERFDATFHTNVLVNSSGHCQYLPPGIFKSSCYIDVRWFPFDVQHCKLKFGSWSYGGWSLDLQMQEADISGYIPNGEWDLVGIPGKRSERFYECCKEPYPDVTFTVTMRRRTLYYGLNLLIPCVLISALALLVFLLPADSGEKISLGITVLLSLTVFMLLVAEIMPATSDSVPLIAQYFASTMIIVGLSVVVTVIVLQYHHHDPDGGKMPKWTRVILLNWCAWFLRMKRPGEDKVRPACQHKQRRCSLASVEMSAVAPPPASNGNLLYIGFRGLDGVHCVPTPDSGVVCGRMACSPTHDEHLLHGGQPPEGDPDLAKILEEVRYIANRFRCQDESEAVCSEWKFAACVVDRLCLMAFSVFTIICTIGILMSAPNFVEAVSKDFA
Sequence of Voltage-gated inwardly rectifying potassium channel KCNH2 (Q12809 whole entry): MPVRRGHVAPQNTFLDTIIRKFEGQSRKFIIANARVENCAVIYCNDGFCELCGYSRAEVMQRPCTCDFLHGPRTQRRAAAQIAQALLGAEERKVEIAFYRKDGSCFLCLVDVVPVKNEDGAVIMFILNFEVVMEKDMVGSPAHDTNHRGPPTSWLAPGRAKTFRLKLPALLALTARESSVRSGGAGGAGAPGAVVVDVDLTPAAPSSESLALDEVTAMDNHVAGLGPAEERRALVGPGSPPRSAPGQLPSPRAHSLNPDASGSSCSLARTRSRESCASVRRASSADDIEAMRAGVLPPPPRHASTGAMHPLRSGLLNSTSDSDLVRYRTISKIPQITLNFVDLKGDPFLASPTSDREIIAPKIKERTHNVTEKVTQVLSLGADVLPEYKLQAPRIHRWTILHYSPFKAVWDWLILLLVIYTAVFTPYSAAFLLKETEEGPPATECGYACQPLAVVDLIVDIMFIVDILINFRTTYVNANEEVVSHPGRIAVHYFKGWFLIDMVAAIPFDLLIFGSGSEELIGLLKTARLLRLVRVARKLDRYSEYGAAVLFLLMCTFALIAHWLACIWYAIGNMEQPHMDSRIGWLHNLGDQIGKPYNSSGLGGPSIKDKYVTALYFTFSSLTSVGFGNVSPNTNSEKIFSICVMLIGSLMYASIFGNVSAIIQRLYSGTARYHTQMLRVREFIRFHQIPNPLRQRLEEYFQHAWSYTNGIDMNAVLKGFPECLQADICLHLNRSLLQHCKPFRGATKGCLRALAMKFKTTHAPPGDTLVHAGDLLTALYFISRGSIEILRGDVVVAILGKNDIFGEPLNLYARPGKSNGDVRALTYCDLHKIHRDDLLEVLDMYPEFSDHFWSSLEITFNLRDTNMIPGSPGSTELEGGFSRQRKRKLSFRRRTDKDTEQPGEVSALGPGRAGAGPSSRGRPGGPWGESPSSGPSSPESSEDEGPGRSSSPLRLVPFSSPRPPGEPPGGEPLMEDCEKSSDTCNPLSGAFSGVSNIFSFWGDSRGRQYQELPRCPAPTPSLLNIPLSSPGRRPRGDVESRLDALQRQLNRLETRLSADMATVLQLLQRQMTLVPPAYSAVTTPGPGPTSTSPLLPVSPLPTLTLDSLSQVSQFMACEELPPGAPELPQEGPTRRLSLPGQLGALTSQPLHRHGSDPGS

Take `Cn1ccc2cc(CNC(=O)N3CC4(CC(=O)c5ccccc5O4)C3)ccc21`: in data set [1], the solubility kinetic at 2 h was found to be 51.5 µM (≈ 19.3 µg/mL). Further, the microsomal CLint in [2] worked out at 24 µL/min/mg; in data set [3], 46 µL/min/mg; in [4], 52 µL/min/mg. Further, in the data set on Mus musculus [5], the outcome was Active.

One may read the EC50 as the concentration that produces a half-maximal response. Regarding `Cc1cc2cc(CNC(=O)N3CC4(CC(=O)c5ccc(F)cc5O4)C3)ccc2[nH]1`, the solubility kinetic at 2 h in data set [1] worked out at 38.7 µM (≈ 15.2 µg/mL). Moreover, in data set [6], the EC50 amounted to 100 nM. Further, the microsomal CLint in [2] worked out at 14 µL/min/mg; in data set [3], 25 µL/min/mg; in [4], 64 µL/min/mg. Further, in the data set on Mus musculus [5], the outcome was Active.

The term Kp denotes the ratio of the level in a tissue or fluid to that in plasma or blood. `Cn1ccc2cc(CNC(=O)N3CC4(CC(=O)c5ccc(F)cc5O4)C3)ccc21`: in data set [1], the solubility kinetic at 2 h came out at 46 µM (≈ 18.1 µg/mL). Also, the microsomal CLint in data set [2] was determined as 13 µL/min/mg; in data set [3], 30 µL/min/mg; in data set [4], 49 µL/min/mg. Moreover, the result in the data set with Mus musculus [5] was Active. Moreover, the concentration at 1 h was 29 ng/g in data set [7]; 78.5 ng/g in [8]; 248 ng/g in data set [9]; 107 ng/mL in data set [10]; 262 ng/mL in [11]; 2050 ng/mL in data set [12]. In addition, the Kp at 1 h in data set [13] is 0.27; in data set [14], 0.3; in data set [15] it was 0.31. For the same compound, the MED in the data set with Mus musculus [16] stood at 10 mg/kg. Also, the hepatocyte CLint in data set [17] is 10.3 µL/min/1e6 cells. The Activity entry in data set [18] is “Non-Toxic”.

For the compound `Cn1ccc2cc(CNC(=O)N3CC(COc4ccc(C(F)(F)F)cc4)C3)cnc21`, the solubility kinetic at 2 h in data set [1] worked out at 2.5 µM (≈ 1.05 µg/mL). Besides, the EC50 in data set [6] stood at 200 nM. Besides, the microsomal CLint in data set [2] amounted to 17 µL/min/mg; in [3] it was 77 µL/min/mg; in data set [4], 123 µL/min/mg. Also, the result with Mus musculus [5] was Active. The concentration at 1 h in data set [7] was determined as 46.8 ng/g; in data set [8] it was 174 ng/g; in data set [9] it was 438 ng/g; in data set [10], 179 ng/mL; in data set [11], 689 ng/mL; in data set [12], 2090 ng/mL. Also, the Kp at 1 h was 0.26 in data set [13], 0.25 in [14] and 0.22 in data set [15].

As a reminder, the efflux ratio is the permeability from basolateral to apical divided by that in the opposite direction, in the common usage. A word on the Papp: it is the rate of passage across a membrane or cell layer, normalised by area and donor concentration. By IC50 is commonly meant the concentration needed to halve the response being measured. For `O=C(NCc1ccc2[nH]ccc2c1)N1CC(COc2ccc(C(F)(F)F)c(F)c2)C1`, the solubility kinetic at 2 h in [1] amounted to 14.2 µM (≈ 5.98 µg/mL). For the same compound, in data set [6], the EC50 is 85 nM. The microsomal CLint in data set [2] is 39 µL/min/mg; in [3], 44 µL/min/mg; in data set [4] it was 36 µL/min/mg. The outcome with Mus musculus [5] was Active. Also, the concentration at 1 h in data set [7] was found to be 201 ng/g; in [8], 678 ng/g; in data set [9], 2810 ng/g; in data set [10] it was 167 ng/mL; in data set [11] it was 610 ng/mL; in data set [12], 4230 ng/mL. For the same compound, the Kp at 1 h amounted to 1.2 in [13], 1.12 in [14] and 0.66 in data set [15]. Also, the efflux ratio at 10 µM in data set [19] stood at 1.3. Moreover, in [20], the Papp at 10 µM came out at 63 ×10⁻⁶ cm/s. For the same compound, in the data set with Mus musculus [16], the MED is 3 mg/kg. The compound further gave an IC50 in data set [21] of 10000 nM.
